Data on 2 molecules can be found in patent publication US10780094B2, “Use of carbonic anhydrase inhibitors for treatment of neurological and psychiatric disorders” (New York University, priority 2016, dated 2020).

The test system of one data set is C57BL/6 mice. As to the kind of experiment: Intra-hippocampal Aβ40-Q22 injection, immunohistochemistry. Type of data set: in vivo, mouse. As to the method:
Six months old C57BL/6 mice were anesthetized with a mixture of ketamine and xylazine (120 and 10 mg/Kg respectively) i.p. and fixed to a stereotaxic frame (David Kopf Instruments, Tujunga, CaliforniaKopf). The body temperature was maintained stable with the use of a heating pad (Harvard Apparatus, Holliston, Mass.) for the total time of the surgery. A volume of 1 μl of a 10 μM fresh solution of Aβ40-Q22—chosen for its propensity to form toxic oligomers, and not fibrils, in the first few hours after solubilization—(Fossati et al., 2010) in PBS, or the vehicle for control mice, was injected in the hippocampus (Coordinates: AP=−2.7, L=−3.0 and H=−4.0, according to the Atlas of Paxinos and Franklin) at a flow rate of 0.1 μl/min. The needle (Hamilton 701 RN 10 μl syringe, RN needle 30/2″/3S) was left in place for two minutes and then slowly withdrawn. In the cases in which MTZ treatment was administered, mice were injected intraperitoneally with a solution of MTZ (20 mg/kg) 1 h before the Aβ40-Q22 intrahippocampal injection. At the selected time after injections, the animals were sacrificed by trans-cardiac perfusion (medium flow pump, Fisher Scientific 13-876-2, 10 ml/min flow rate) with PBS for 2 minutes followed by 4% paraphormaldehyde for 5 minutes. Brains were then removed from the skull and postfixed in 4% paraphormaldehyde for 2 h at 4° C. […] Brains were then washed in PBS, assembled in a plastic mold with Tissue-Tek O.C.T. compound (Fisher Scientific), and frozen with a mixture of liquid nitrogen and isopenthanol. Serial cryostat sections of 8 μm thickness were collected on positively charged microscope slides (Fisher Scientific) and stored at −80° C. until further immunohistochemical analysis.
For immunohistochemical staining, slices were warmed to RT for 5′ prior to use, rinsed in PBS and blocked with Mouse on Mouse (MOM) blocking reagent (2 drops in 2.5 ml of PBS, Vector Laboratories, Burlingame, Calif.) for 20 minutes. Incubation with the rabbit monoclonal antibody against active caspase-3 (Cell Signaling Technology) was performed overnight at 4° C. in PBS containing 0.1% triton X-100 and 5 mg/ml BSA. The day after, the sections were washed three times with PBS and incubated in Alexa Fluor 488- or 633-conjugated anti-rabbit IgG (Life Technologies; 1:200 in PBST with 5 mg/ml BSA; 1 h at RT), followed by primary anti-Aβ 6E10 (1:200 in PBS+MOM for 2 hours at RT), and by secondary Alexa Fluor 568 anti-mouse IgG. Finally, the slices were washed and the DNA counterstained with TO-PRO (Life Technologies) 1:1000 for 10 min, or with NeuN green neuronal staining (1:100 in PBS for 1 hour, Millipore, Temecula, Calif.). For staining of active microglial cells, tissue sections were incubated with anti IBA1 goat antibody (Abcam, Cambridge, Mass.) 1:200 in PBS containing 0.1% Triton and 5 mg/ml BSA for 1 hour, followed by Alexa Fluor 488 anti-goat IgG (1 hour). After washing, slides were mounted with an aqueous mounting medium (Vector Laboratories). Images were acquired in a Zeiss LSM 510 confocal microscope using 40× or 100× oil lens and processed using Image J and Adobe Photoshop. Images were acquired maintaining constant exposure for all samples across single experiments. For quantifications, stained brain slices corresponding to the injection site area of 3 or more animals were quantified with Image J. The total area of NeuN, caspase 3, Aβ and IBA1 positive cells was quantified and compared between different treatments.

Data set [1] deals with caspase 9 in SH-SY5Y neuronal cells. As to the kind of experiment: Caspase-Glo 9 activity after Aβ challenge. Type of data set: cell-based, human. To be noted: for caspase 9 activation: Example 2/3, FIG. 16C, 22. Here is the method: (§1) Caspase 9 and caspase 3/7 activation was measured by luminescent assays (Caspase-Glo 9 and caspase-Glo 3/7, Promega, Madison, Wis.), in cells treated with the Aβ peptides in DMEM without FBS. Briefly, 10,000 cells/well were plated in 96 wells plates and incubated for 24 hours with the freshly solubilized Aβ peptides. Caspase-Glo reagent was added to the cell cultures resulting in cell lysis, followed by caspase cleavage of the substrate and generation of a luminescent signal produced by the luciferase reaction. After 40 minutes incubation, the amount of caspase activity was evaluated in a plate-reading luminometer (Synergy HT Multi-Mode Microplate Reader, Biotek, Winooski, Vt.) as described in (Fossati et al., 2012b). To inhibit non-specific background activity, the proteasome inhibitor MG-132 was added to the Caspase-Glo reagent before the experiment as indicated by the manufacturer. In all cases results are expressed as fold-change compared to untreated control cells.
Cells were plated at a confluence of 10.000 cells per well in 96-wells microplate luminescence microtiter (ThermoFisher, Waltham, Mass., US). The day after, cells were treated with the peptides and/or drugs for the experimental times. After that, caspase-Glo 9 assay was performed, following the protocol provided from the manufacturer. Luminescence was measured using a FlexStation 3 Multi-Mode Microplate Reader (Molecular devices, Sunnyvalem Calif., US).

The next data set has as its system caspase 9 in glial cells. As to the kind of experiment: Caspase-Glo 9 activity after Aβ challenge. Type of data set: cell-based, human. As to the method:
as §1

Where [2] appears, read: MTZ IP one hour before peptide injection.
Setting [3] is: 100 or 300 μM MTZ, 10 μM Aβ42, 24 hours.

With `CC(=O)/N=c1/sc(S(N)(=O)=O)nn1C` [MTZ, methazolamide], in the data set on C57BL/6 mice (20 mg/Kg MTZ IP 1 hour prior to Aβ40-Q22 injection, sacrificed 4 hours after), the “activation of caspase-3 induced by Aβ in CA1 neurons” value was “prevented”. In addition, in the data set on C57BL/6 mice (Aβ in the presence or absence of MTZ, FIG. 9A), the “Aβ staining in the injected hemisphere” value is listed as “similarly increased”. The “active-caspase 3 staining in IBA1- and Aβ-positive microglia” value in the data set with C57BL/6 mice (MTZ IP before Aβ injection) is recorded as “notably lower”. Further, in the data set with C57BL/6 mice (setting [2]), the “caspase activation in the vicinity of the injection site” value was “significantly reduced”. Moreover, the “loss of NeuN immunoreactivity in the vicinity of the injection site” value with C57BL/6 mice (setting [2]) is recorded as “significantly reduced”. The “brain entry after systemic administration” value in the data set with C57BL/6 mice (inferred from efficacy after IP dosing) is on record as “can enter the mouse brain”. For the same molecule, the “caspase 9 over-activation” value in data set [1] (setting [3]) is listed as “completely inhibited”; with caspase 9 in glial cells (setting [3]), “significantly reduced”. Further, the “caspase 9 activation” value in data set [1] is “protective effect”. Also, the “caspase 9 activity, drug alone” value (in data set [1] (MTZ alone in absence of Aβ); in the data set with caspase 9 in glial cells (MTZ alone in absence of Aβ)) was “did not have any effect” in each case.

For `CC(=O)Nc1nnc(S(N)(=O)=O)s1` [ATZ, acetazolamide], the “caspase 9 activation” value in data set [1] is listed as “protective effect”.
